Reference: BigSolDB 2.1

CC1(C)C2CCC1(CS(=O)(=O)O)C(=O)C2 (stereo not drawn)
solubility (mole fraction)
Details	in acetyl acetate	in methyl acetate
305.7 K	0.099	0.0236
310.6 K	0.122	0.0278
313.7 K	–	0.0316
315.1 K	0.134	0.0339
317.4 K	0.15	–
320.1 K	–	0.0409
321.4 K	0.161	0.039
324.9 K	0.173	0.0459
328.9 K	0.179	–
329.1 K	–	0.0546
331.7 K	0.181	–
334.6 K	–	0.0726
339.1 K	–	0.0906
